Our source for the Ki values is US10081601B2, “Glucocerebrosidase modulators and uses thereof” (Alectos Therapeutics Inc., priority 2013, dated 2018).

What is called Ki is a measure of affinity in units of concentration, obtained from inhibition or displacement.

The target of the assay is GCase enzyme (Cerezyme®, recombinant human GCase) (Homo sapiens, UniProt P04062, R534H). The note with it: read-out: GCase Ki; from IC50 by Cheng-Prusoff equation, GCase Km 7.9 mM, pH 7.0.
GCase enzyme (Cerezyme®, recombinant human GCase), sequence (P04062 40-536 R534H limits assumed): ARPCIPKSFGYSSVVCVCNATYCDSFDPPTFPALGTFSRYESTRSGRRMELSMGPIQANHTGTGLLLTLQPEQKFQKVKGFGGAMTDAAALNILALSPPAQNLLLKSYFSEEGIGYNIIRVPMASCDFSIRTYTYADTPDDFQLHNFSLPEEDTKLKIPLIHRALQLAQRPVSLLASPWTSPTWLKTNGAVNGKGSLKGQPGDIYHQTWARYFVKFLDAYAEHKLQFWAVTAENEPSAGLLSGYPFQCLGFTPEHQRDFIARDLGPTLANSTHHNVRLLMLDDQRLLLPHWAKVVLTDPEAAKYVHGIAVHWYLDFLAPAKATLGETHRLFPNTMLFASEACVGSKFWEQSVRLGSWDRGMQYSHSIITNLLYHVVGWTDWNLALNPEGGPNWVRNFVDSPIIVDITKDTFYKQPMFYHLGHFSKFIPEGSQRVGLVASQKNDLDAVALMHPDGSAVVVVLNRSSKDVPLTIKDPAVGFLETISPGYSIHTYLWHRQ

Procedure: Various concentrations of test compounds were prepared in DMSO and then diluted into buffer consisting of 50 mM sodium phosphate 0.25% w/v sodium taurodexoycholate, pH 7.0. […] The reaction solution consisted of 25 μL of 6 mM 4-methylumbelliferone-β-D glucopyranoside in 10% DMSO in the same buffer, 12.5 μL of enzyme and 12.5 μL of various concentrations of test compound diluted in buffer. […] The reaction was initiated by addition of enzyme and allowed to proceed for 20 min at 37° C. to assess GCase activity. […] IC50 values were determined by fitting the data to a log[inhibitor concentration] versus response curve using GraphPad Prism.

On to `C[C@@H]1[C@@H](O)[C@H](O)CNC12CC2` [Example 1, (6R,7R,8S)-8-methyl-4-azaspiro[2.5]octane-6,7-diol], for which the inhibitory constant (Ki) is 2.6 nM.

On to `O[C@H]1[C@H](O)CNC2(CC2)[C@@H]1C(F)F` [Example 4, (6R,7R,8S)-8-(difluoromethyl)-4-azaspiro[2.5]octane-6,7-diol], for which the Ki is 8 nM.
